According to article PMC11410929, “Biochemical and crystallographic studies of L,D-transpeptidase 2 from Mycobacterium tuberculosis with its natural monomer substrate” (Communications Biology, 2024):

Tested on: LdtMt2^C354S
Format: biochemical, Mycobacterium tuberculosis

## GlcNAc-MurNAc-L-Ala-D-iGluNH2-m-DAPNH2-D-Ala-D-Ala [Compound 4]
  Product formation with LdtMt2^C354S: no product formation was observed
